Assay results from patent US11744844B2, “Selective estrogen receptor degraders” (Eli Lilly and Company, priority 2021, dated 2023).
Where a name gives a salt, the structure may show the parent alone.

Molecular target: T1, ERα (Homo sapiens, UniProt P03372)
T1 construct: measure the degradation of ERα by a test compound in an ERα positive breast cancer cell line such as MCF7; host or cells: MCF7
T1 sequence (P03372 1-595): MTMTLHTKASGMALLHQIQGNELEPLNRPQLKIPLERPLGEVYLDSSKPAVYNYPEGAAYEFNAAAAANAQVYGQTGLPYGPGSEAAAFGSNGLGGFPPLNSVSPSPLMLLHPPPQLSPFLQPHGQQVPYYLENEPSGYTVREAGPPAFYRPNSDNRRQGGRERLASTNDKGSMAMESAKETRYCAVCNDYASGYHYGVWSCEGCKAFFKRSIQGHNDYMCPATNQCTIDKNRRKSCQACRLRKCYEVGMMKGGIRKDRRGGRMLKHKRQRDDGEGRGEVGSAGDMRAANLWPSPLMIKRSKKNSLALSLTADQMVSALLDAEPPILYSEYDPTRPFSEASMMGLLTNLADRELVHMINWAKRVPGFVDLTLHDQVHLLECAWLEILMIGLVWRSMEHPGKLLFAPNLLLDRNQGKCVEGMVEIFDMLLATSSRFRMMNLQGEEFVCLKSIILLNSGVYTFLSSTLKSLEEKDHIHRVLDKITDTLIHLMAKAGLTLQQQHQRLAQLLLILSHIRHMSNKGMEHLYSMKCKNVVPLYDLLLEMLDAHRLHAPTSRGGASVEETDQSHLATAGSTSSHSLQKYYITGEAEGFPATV
Assay: PRα induction assay in MCF7 cells (ERα agonism)
Format: cell-based
Conditions: MCF7 breast cancer cells, 24 hours, up to 2 μM
Procedure: The purpose of the following PRα induction assay is to determine whether a test compound has agonistic activity against ERα receptor (an agonist would be expected to activate the receptor).
Culture MCF7 (purchased from ATCC HTB-22) in DMEM media supplemented with 10% FBS, 0.01 mg/mL human insulin 1 and 1% penicillin/streptomycin antibiotics and plate the cells (prior to becoming 70% confluent) in 384-well flat-bottom plates at a density of 4,000 cells per well in 20 μL volume in DMEM phenol red free media containing 10% FBS (charcoal stripped). Incubate the cells overnight in a cell culture incubator (5% CO2, 95% relative humidity at 37° C.) and allow the cells to attach to the plate. The following day dose the cells with test compound. Use an Echo 555 acoustic dispenser to prepare compound serial dilutions (1:3) in a range from 6 μM to 0.0003 μM. […]
The following day wash cells with PBS 0.05% TWEEN® 20 (2×20 μL) and incubate with secondary antibody (20 μL/well) (1:1000 dilution, Goat anti-rabbit IgM ALEXA FLUOR™ 488) in PBS 1% BSA for 105 minutes at room temperature. […] Scan plates with ACUMEN EXPLORER™ (Laser-scanning fluorescence microplate cytometer manufactured by TTP LABTECH LTD) to measure PRα. […]

| agonistic activity (PRα induction) | SMILES |
| --- | --- |
| no significant agonistic activity | O=S(=O)(O)Oc1ccc2c3c(cnc2c1)-c1ccc(C(F)(F)F)cc1O[C@@H]3c1ccc(OCCN2CC(CF)C2)cc1 [Example 1, [(5R)-5-[4-[2-[3-(Fluoromethyl)azetidin-1-yl]ethoxy]phenyl]-8-(trifluoromethyl)-5H-chromeno[4,3-c]quinolin-2-yl]hydrogen sulfate] |
| no significant agonistic activity | O=C(O)[C@H]1O[C@@H](Oc2ccc3c4c(cnc3c2)-c2ccc(C(F)(F)F)cc2O[C@@H]4c2ccc(OCCN3CC(CF)C3)cc2)[C@H](O)[C@@H](O)[C@@H]1O [Example 2, (2S,3S,4S,5R,6S)-6-[[(5R)-5-[4-[2-[3-(Fluoromethyl)azetidin-1-yl]ethoxy]phenyl]-8-(trifluoromethyl)-5H-chromeno[4,3-c]quinolin-2-yl]oxy]-3,4,5-trihydroxy-tetrahydropyran-2-carboxylic acid] |
